This series in a line: Pharmacokinetics in male SD rats after intragastric administration. Type of series: in vivo, rat. To be noted: 50 mg/kg intragastric, plasma. Here is the method:
Male SD rats were intragastrically administrated with the single enantiomer and racemate of IMM-H014, to compare their pharmacokinetic characteristics in rat bodies.
36 male SD rats were randomly divided into 6 groups, 6 animals in each group, including: (+)IMM-H014 intragastric administration group, (−)IMM-H014 intragastric administration group, and (±)IMM-H014 intragastric administration group. The administration dosage was 50 mg/kg. The rats were in fasting for 12 hours before the administrations and they could freely drink water.
100 mg of the IMM-H014 raw material drug was weighed and dissolved in 20 ml of purified water to prepare a 5 mg/ml administration solution, which was administrated (1 ml/100 g) in a single dose according to body weights.
At 0 hour before administrations, and at 5 min, 10 min, 30 min, 1 h, 2 h, 3 h, 5 h, 8 h, 12 h and 24 h after administrations, 250 μL of blood was taken from fundus plexus venosus, placed in an EP tube containing 10 μL of heparin sodium, and centrifuged at 4000 rpm for 10 min, and then the blood plasma was taken and stored in a refrigerator at −80° C.
50 μL of a plasma sample was precisely pipetted, and after 10 μL of an internal standard working solution was added thereto, they were placed in a 1.5 ml EP. They were whirled for 30 s and added with 500 μl of ethyl acetate. Then, they were whirled and vibrated for 5 min, and after being kept still for 10 min at 4° C., they were centrifuged for 5 min at 13000 r. The supernatant was taken and dried by blowing N2 at 30° C. The residue was re-dissolved by adding 100 μL of the initial mobile phase and centrifuged for 5 min at 13000 r, and the supernatant was transferred into a sampling bottle for measurements.
• Chromatographic column: Agilent ZORBAX SB-C18 (2.1×100 mm, 3.5 μm) • Mobile phase A: water (0.1% formic acid, 1 mM ammonium acetate); mobile • phase B: acetonitrile (0.1% formic acid) • Column temperature: at 35° C.; sampling amount: 3 μL • Elution: 0-2 min: 40%-53% of the B; 2-3 min: 53%-40% of the B 4.4 Mass Spectrometry Conditions
Ion source: ESI; detection mode: positive ions; temperature of drying gases: 300° C.; flow rate of drying gases: nitrogen gas, 11 L/min; atomizing gas: nitrogen, […]; capillary voltage: 4000 V; scanning mode: Multiple Reaction Measurement (MRM); ion pairs and related voltage parameters were shown below:
The original data obtained after samples were collected was treated by adopting MassHunter QQQ data processing software, to obtain blood-drug concentration data; then, the pharmacokinetic parameters were calculated through DAS software; finally, the t-test was performed by adopting SPSS software, to compare if there were statistical differences in drugs having the same optical activity but in different batches and in drugs having different optical activities, wherein the P<0.05 was considered to have significant differences. In the study, by intragastrically administrating 3 groups of SD rats with the single enantiomer and racemate of the IMM-H014 respectively, their pharmacokinetic characteristics in the rat bodies were studied.

Where two headings read alike, the source gives them in different places.

With `COC(=O)c1cc(OC)c2c(c1-c1c(CN3CCOCC3)cc(OC)c3c1OCO3)OCO2` [(+)IMM-H014], the “AUC (0-t)” value came to 2876 ± 1978 ng·h/mL, the “AUC (0-∞)” value is 2877 ± 1977 ng·h/mL, the CLz/F worked out at 417 ± 262 mL/min/kg and the t1/2z was found to be 59 ± 15.6 min. For the same compound, the highest concentration (Cmax) (male, SD, rat, po, 50 mg/kg, read-out: Cmax) turned out to be 2280 ± 2000 ng/mL. Further, the Tmax (male, SD, rat, po, 50 mg/kg, read-out: Tmax) turned out to be 20 ± 11.4 min.

With `COC(=O)c1cc(OC)c2c(c1-c1c(CN3CCOCC3)cc(OC)c3c1OCO3)OCO2` (racemic) [(±)IMM-H014], the “AUC (0-t)” value was 5242 ± 3447 ng·h/mL, the “AUC (0-∞)” value is 5268 ± 3432 ng·h/mL, the CLz/F was 233 ± 155 mL/min/kg and the Cmax turned out to be 3324 ± 2307 ng/mL. Further, the Tmax stood at 12.5 ± 9 min and the t1/2z was 72.36 ± 16.2 min.

Take `COC(=O)c1cc(OC)c2c(c1-c1c(CN3CCOCC3)cc(OC)c3c1OCO3)OCO2` [(−)IMM-H014]: the “AUC (0-t)” value came to 5866 ± 2979 ng·h/mL, the “AUC (0-∞)” value is 5892 ± 3005 ng·h/mL, the CLz/F was 178 ± 103 mL/min/kg and the Cmax worked out at 3280 ± 1579 ng/mL. The time to peak (Tmax) worked out at 18 ± 10.8 min and the t1/2z came to 74.88 ± 19.8 min.

Values taken from patent US12630520B2, “Left-handed bicyclic morpholine and salt thereof, preparation method therefor, pharmaceutical composition, and use” (Institute of Materia Medica, Chinese Academy of Medical …, priority 2019, dated 2026).
